Here are results for four compounds from article PMC3860322 (Leukemia & lymphoma, 2013).

Data set [1] is described as follows: Plasma pharmacokinetics of 17-AAG and its metabolite 17-AG. It counts as in vivo, patients. To be noted: for AUC exposed: combined AUC of 17-AAG and 17-AG.
Data set [2] has as its system acute myeloid leukemia. To be noted: phase I trial in AML, after one cycle of therapy; cited from earlier work.
In data set [3] the test system is cytochrome P450 3A4. To be noted: cited from earlier work.
Where [4] appears, read: 17-AAG in plasma, day 1 (17-AAG alone), 150 mg/m^2, n=8.
Where [5] appears, read: 17-AAG in plasma, day 1 (17-AAG alone), 200 mg/m^2, n=3.
Setting [6] is: 17-AAG in plasma, day 4 (17-AAG+PS-341), 150 mg/m^2, n=8.
[7] abbreviates: 17-AAG in plasma, day 4 (17-AAG+PS-341), 200 mg/m^2, n=3.
Where [8] appears, read: 17-AAG, day 1 (17-AAG alone), 150 mg/m^2, n=8.
The mark [9] stands for this setting: 17-AAG, day 1 (17-AAG alone), 200 mg/m^2, n=3.
The mark [10] stands for this setting: 17-AAG, day 4 (17-AAG+PS-341), 150 mg/m^2, n=8.
The mark [11] stands for this setting: 17-AAG, day 4 (17-AAG+PS-341), 200 mg/m^2, n=3.
Setting [12] is: metabolite 17-AG, day 1 (17-AAG alone), 17-AAG 150 mg/m^2, n=8.
The mark [13] stands for this setting: metabolite 17-AG, day 1 (17-AAG alone), 17-AAG 200 mg/m^2, n=3.
The mark [14] stands for this setting: metabolite 17-AG, day 4 (17-AAG+PS-341), 17-AAG 150 mg/m^2, n=8.
Setting [15] is: metabolite 17-AG, day 4 (17-AAG+PS-341), 17-AAG 200 mg/m^2, n=3.

The structures appear in SMILES notation.

As to `C=CCNC1=C2C[C@@H](C)C[C@H](OC)[C@H](O)[C@@H](C)/C=C(\C)[C@H](OC(N)=O)[C@@H](OC)/C=C\C=C(/C)C(=O)NC(=CC1=O)C2=O` [17-AAG, 17-Allylamino-17-demethoxygeldanamycin, reference compound], the Cmax (in general, the highest concentration seen after dosing) in data set [1] (17-AAG in plasma, cycle 1 day 1 (17-AAG alone), 17-AAG 200 mg/m^2 IV, n=3) is recorded as 3814 ± 578 ng/mL. In addition, the AUCtot in data set [1] (setting [4]) came to 5871 ± 2508 ng·h/mL; in data set [1] (setting [5]) it was 9002 ± 1970 ng·h/mL; in data set [1] (setting [6]), 6717 ± 2631 ng·h/mL; in data set [1] (setting [7]), 9142 ± 1358 ng·h/mL. Further, the “Terminal T1/2” value in data set [1] (setting [4]) was 4.77 ± 1.15 h; in data set [1] (setting [5]), 4.59 ± 0.21 h; in data set [1] (setting [6]) it was 4.04 ± 0.86 h; in data set [1] (setting [7]), 3.78 ± 1.29 h. Besides, the Clearance in data set [1] (setting [8]) is on record as 29.36 ± 11.11 L/h; in data set [1] (setting [9]), 22.92 ± 4.89 L/h; in data set [1] (setting [10]), 24.94 ± 8.10 L/h; in data set [1] (setting [11]), 21.92 ± 3.91 L/h. Also, the Vss (in general, the apparent volume that relates the amount in the body to the concentration in plasma or blood) is on record as 98.10 ± 37.46 L in data set [1] (setting [8]), 73.30 ± 16.81 L in data set [1] (setting [9]), 82.36 ± 19.91 L in data set [1] (setting [10]) and 86.83 ± 24.37 L in data set [1] (setting [11]).
As to `CO[C@H]1/C=C\C=C(/C)C(=O)NC2=CC(=O)C(N)=C(C[C@@H](C)C[C@H](OC)[C@H](O)[C@@H](C)/C=C(\C)[C@@H]1OC(N)=O)C2=O` [17-AG, 17-amino-17-demethoxygeldanamycin], the AUC exposed in data set [1] (day 1 (17-AAG alone), 17-AAG 150 mg/m^2, n=8) came to 12205 ± 8530 ng·h/mL; in data set [1] (day 1 (17-AAG alone), 17-AAG 200 mg/m^2, n=3) it was 18959 ± 3169 ng·h/mL; in data set [1] (day 4 (17-AAG+PS-341), 17-AAG 150 mg/m^2, n=8), 14468 ± 7179 ng·h/mL; in data set [1] (day 4 (17-AAG+PS-341), 17-AAG 200 mg/m^2, n=3), 22403 ± 1036 ng·h/mL. Moreover, the “change in 17-AG clearance on co-administration with bortezomib” value in data set [1] (day 4 (17-AAG+bortezomib) vs day 1 (17-AAG alone), all 11 patients, p=0.005) is given as “decrease in clearance”. In addition, in data set [1] (day 4 (17-AAG+bortezomib) vs day 1 (17-AAG alone), all 11 patients, p=.032), the “change in 17-AG AUC on co-administration with bortezomib” value is given as “increase in AUC”. In addition, the Cmax in data set [1] (metabolite 17-AG in plasma, day 1 (17-AAG alone), 17-AAG 150 mg/m^2, n=8) came to 821 ± 450 ng/mL; in data set [1] (metabolite 17-AG in plasma, day 1 (17-AAG alone), 17-AAG 200 mg/m^2, n=3) it was 1300 ± 421 ng/mL; in data set [1] (metabolite 17-AG in plasma, day 4 (17-AAG+PS-341), 17-AAG 150 mg/m^2, n=8) it was 1025 ± 445 ng/mL; in data set [1] (metabolite 17-AG in plasma, day 4 (17-AAG+PS-341), 17-AAG 200 mg/m^2, n=3) it was 1412 ± 26 ng/mL. Further, the Clearance in data set [1] (metabolite 17-AG, apparent clearance, day 1 (17-AAG alone), 17-AAG 150 mg/m^2, n=8) was 41.35 ± 26.48 L/h; in data set [1] (metabolite 17-AG, apparent clearance, day 1 (17-AAG alone), 17-AAG 200 mg/m^2, n=3) it was 23.07 ± 12.01 L/h; in data set [1] (metabolite 17-AG, apparent clearance, day 4 (17-AAG+PS-341), 17-AAG 150 mg/m^2, n=8) it was 29.87 ± 23.29 L/h; in data set [1] (metabolite 17-AG, apparent clearance, day 4 (17-AAG+PS-341), 17-AAG 200 mg/m^2, n=3), 14.86 ± 1.55 L/h. Moreover, the AUCtot in data set [1] (setting [12]) was determined as 6334 ± 6244 ng·h/mL; in data set [1] (setting [13]), 9957 ± 4258 ng·h/mL; in data set [1] (setting [14]), 7751 ± 5028 ng·h/mL; in data set [1] (setting [15]) it was 13261 ± 1216 ng·h/mL. Further, the “Terminal T1/2” value in data set [1] (setting [12]) came out at 11.16 ± 1.40 h; in data set [1] (setting [13]), 7.92 ± 1.76 h; in data set [1] (setting [14]) it was 10.53 ± 2.20 h; in data set [1] (setting [15]), 7.47 ± 0.73 h. For the same compound, the Tmax (in general, the time from dosing to the highest level) in data set [1] (setting [12]) is reported as 1.53 ± 0.42 h; in data set [1] (setting [13]) it was 1.53 ± 0.46 h; in data set [1] (setting [14]), 1.85 ± 1.10 h; in data set [1] (setting [15]), 3.72 ± 0.64 h.
Take `CO[C@H]1/C=C\C=C(/C)C(=O)NC2=CC(=O)C(NCCN(C)C)=C(C[C@@H](C)C[C@H](OC)[C@H](O)[C@@H](C)/C=C(\C)[C@@H]1OC(N)=O)C2=O` [alvespimycin]: the clinical response entry in data set [2] was “three patients achieved a complete remission with incomplete count recovery”.
`CC(C)C[C@H](NC(=O)[C@H](Cc1ccccc1)NC(=O)c1cnccn1)B(O)O` [bortezomib]: the metabolizing enzyme entry in data set [3] is reported as “metabolized by cytochrome P450 3A4”.
